How the values were obtained:
[1] = target: histone deacetylase activity (HeLa nuclear extract); assay: HDAC fluorescent activity assay (Biomol, Fluor de Lys substrate); format: biochemical; settings: IC50 range
Protocol: The ability of compounds to inhibit histone deacetylase activities was measured using the commercially available HDAC fluorescent activity assay from Biomol. In brief, the Fluor de Lys™ substrate, a lysine with an epsilon-amino acetylation, is incubated with the source of histone deacetylase activity (HeLa nuclear extract) in the presence or absence of inhibitor. Deacetylation of the substrate sensitises the substrate to Fluor de Lys™ developer, which generates a fluorophore.
Data are expressed as a percentage of the control, measured in the absence of inhibitor, with background signal being subtracted from all samples, as follows:— % activity=[(S^i−B)/(S^o−B)]×100 where S^i is the signal in the presence of substrate, enzyme and inhibitor, S^o is the signal in the presence of substrate, enzyme and the vehicle in which the inhibitor is dissolved, and B is the background signal measured in the absence of enzyme.
Histone deacetylase activity from crude nuclear extract derived from HeLa cells was used for screening. The preparation, purchased from 4C (Seneffe, Belgium), was prepared from HeLa cells harvested whilst in exponential growth phase. The nuclear extract is prepared according to Dignam JD1983 Nucl. Acid. […] The final buffer composition was 20 mM Hepes, 100 mM KCl, 0.2 mM EDTA, 0.5 mM DTT, 0.2 mM PMSF and 20% (v/v) glycerol.

[2] = system: HUT; assay: HUT cell inhibition assay (WST-1 cell viability); format: cell-based; settings: HUT cells, 72-96 h, WST-1 assay, IC50 range
Protocol: (§1) Cancer cell lines (U937 and HUT) growing in log phase were harvested and seeded at 1000-2000 cells/well (100 μl final volume) into 96-well tissue culture plates. Following 24 h of growth cells were treated with compound. Plates were then re-incubated for a further 72-96 h before a WST-1 cell viability assay was conducted according to the suppliers (Roche Applied Science) instructions.
(§2) Data were expressed as a percentage inhibition of the control, measured in the absence of inhibitor, as follows:— % inhibition=100−[(S^i/S^o)×100] where S^i is the signal in the presence of inhibitor and S^o is the signal in the presence of DMSO.
(§3) Dose response curves were generated from 8 concentrations (top final concentration 10 μM, with 3-fold dilutions), using 6 replicates.
(§4) IC50 values were determined by non-linear regression analysis, after fitting the results to the equation for sigmoidal dose response with variable slope (% activity against log concentration of compound), using Graphpad Prism software.
(§5) IC50 results were allocated to one of 3 ranges as follows: […]

[3] = system: U937; assay: U937 cell inhibition assay (WST-1 cell viability); format: cell-based; settings: Homo sapiens, U-937; U937 cells, 72-96 h, WST-1 assay, IC50 range
Protocol: as §1, §2, §3, §4, §5

[4] = system: HeLa cells; assay: HeLa cell inhibition assay (SRB cell viability); format: cell-based; settings: Homo sapiens, HeLa, 72 h, IC50 range
Protocol: HeLa cells growing in log phase were harvested and seeded at 1000 cells/well (200 μl final volume) into 96-well tissue culture plates. Following 24 h of cell growth cells were treated with compounds (final concentration of 20 μM). Plates were then re-incubated for a further 72 h before a sulphorhodamine B (SRB) cell viability assay was conducted according to Skehan 1990 J Natl Canc Inst 82, 1107-1112.
as §2
IC50 values were determined by non-linear regression analysis, after fitting the results of eight data points to the equation for sigmoidal dose response with variable slope (% activity against log concentration of compound), using Graphpad Prism software.
as §5

SMILES | IC50 [1] | IC50 [2] | IC50 [3] | IC50 [4]
COc1ccc(CN2CC3CN(c4ncc(C(=O)NO)cn4)CC3C2)cc1 (stereo not drawn) [Example 84, N-Hydroxy 2-[5-(4-methoxybenzyl)hexahydropyrrolo[3,4-c]pyrrol-2(1H)-yl]pyrimidine-5-carboxamide] | < 100 nM | < 330 nM | 331 to 3300 nM | 331 to 3300 nM
O=C(NO)c1cnc(N2CC3C(C2)C3NC(=O)c2ccc3sccc3c2)nc1 (stereo not drawn) [Example 17, N-Hydroxy 2-{6-[(1-benzothien-5-ylcarbonyl)amino]-3-azabicyclo[3.1.0]hex-3-yl}pyrimidine-5-carboxamide] |  | < 330 nM | 331 to 3300 nM | 331 to 3300 nM
O=C(NO)c1cnc(N2CC3CN(S(=O)(=O)c4ccc5ccccc5c4)CC3C2)nc1 (stereo not drawn) [Example 76, N-Hydroxy 2-[5-(naphthalene-2-sulfonyl)hexahydro-pyrrolo[3,4-c]pyrrol-2(1H)-yl]pyrimidine-5-carboxamide] | < 100 nM | < 330 nM | 331 to 3300 nM | 331 to 3300 nM
O=C(NO)c1cnc(N2CC3C(C2)C3NCc2csc3ccccc23)nc1 (stereo not drawn) [Example 32, N-Hydroxy 2-{6-[(1-benzothien-3-ylmethyl)amino]-3-azabicyclo[3.1.0]hex-3-yl}pyrimidine-5-carboxamide] | < 100 nM | < 330 nM | < 330 nM | < 330 nM
CN(C)CCN(C1C2CN(c3ncc(C(=O)NO)cn3)CC21)S(=O)(=O)c1ccc2ccccc2c1 (stereo not drawn) [Example 52, N-Hydroxy 2-{6-[(2-dimethylaminoethyl)(naphthalene-2-sulfonyl)-amino]-3-azabicyclo[3.1.0]hex-3-yl}pyrimidine-5-carboxamide] |  | < 330 nM | 331 to 3300 nM | 331 to 3300 nM
O=C(NO)c1cnc(N2CC3C(C2)C3NS(=O)(=O)c2cccs2)nc1 (stereo not drawn) [Example 2, N-Hydroxy 2-{6-[(thien-2-ylsulfonyl)amino]-3-azabicyclo[3.1.0]hex-3-yl}pyrimidine-5-carboxamide] |  | > 3300 nM | > 3300 nM | > 3300 nM
COc1ccc(CNC2C3CN(c4ncc(C(=O)NO)cn4)CC32)cc1 (stereo not drawn) [Example 21, N-Hydroxy 2-{6-[(4-methoxybenzyl)amino]-3-azabicyclo[3.1.0]hex-3-yl}pyrimidine-5-carboxamide] |  | < 330 nM | < 330 nM | 331 to 3300 nM
CN(C)CCCN(C1C2CN(c3ncc(C(=O)NO)cn3)CC21)S(=O)(=O)c1ccc2ccccc2c1 (stereo not drawn) [Example 50, N-Hydroxy 2-{6-[(3-dimethylaminopropyl)(naphthalene-2-sulfonyl)amino]-3-azabicyclo[3.1.0]hex-3-yl}pyrimidine-5-carboxamide] | < 100 nM | < 330 nM | < 330 nM | 
O=C(NO)c1cnc(N2CC3C(C2)C3NCc2ccc(Br)cc2)nc1 (stereo not drawn) [Example 36, N-Hydroxy 2-{6-[(4-bromobenzyl)amino]-3-azabicyclo[3.1.0]hex-3-yl}pyrimidine-5-carboxamide] | < 100 nM | < 330 nM | < 330 nM | 
O=C(NO)c1cnc(N2CC3C(C2)C3NCC2CCCCC2)nc1 (stereo not drawn) [Example 25, N-Hydroxy 2-{6-[(cyclohexylmethyl)amino]-3-azabicyclo[3.1.0]hex-3-yl}pyrimidine-5-carboxamide] |  | < 330 nM | < 330 nM | < 330 nM
O=C(CCCCCc1ccccc1)NC1C2CN(c3ncc(C(=O)NO)cn3)CC21 (stereo not drawn) [Example 8, N-Hydroxy 2-[6-(6-phenylhexanoyl)amino-3-azabicyclo[3.1.0]hex-3-yl]-pyrimidine-5-carboxamide] |  | < 330 nM | 331 to 3300 nM | 331 to 3300 nM
O=C(NO)c1cnc(N2CC3C(C2)C3NC(=O)c2ccccc2)nc1 (stereo not drawn) [Example 13, N-Hydroxy 2-[6-(benzoylamino)-3-azabicyclo[3.1.0]hex-3-yl]pyrimidine-5-carboxamide] |  | 331 to 3300 nM | 331 to 3300 nM | 331 to 3300 nM

From US7932246B2, “Histone deacetylase inhibitors” (Chroma Therapeutics Ltd., priority 2005, dated 2011)
